Non-standard residues stand in square brackets, D forms with d. No end group written: not given here. Hyp = O=C(O)[C@@H]1C[C@@H](O)CN1
Key:
[1] = Binding of peptides to synthetic melanin (Tricine-SDS-PAGE analysis); conditions: for Binding of peptides on synthetic melanin, Mel + peptide: L-Dopa polymerized first, peptide added (1/4); for Binding of peptides on synthetic melanin, Mel + peptide 2 hours at pH 7.4: filtered (10 kDa) preformed melanin; for Binding of peptides on synthetic melanin, Mel + peptide 2 hours at pH 7.4 / Binding of peptides on synthetic melanin, Mel + peptide 18 hours at pH 7.4 / Binding of peptides on synthetic melanin, Mel + peptide 18 hours at pH 8.5 / Binding of peptides on synthetic melanin, Mel + peptide 10 minutes / Binding of peptides on synthetic melanin, Mel + peptide 2 hours / Binding of peptides on synthetic melanin, Mel + peptide 18 hours: peptide/L-Dopa 1/4; for Binding of peptides on synthetic melanin, Mel + peptide 18 hours at pH 7.4 / Binding of peptides on synthetic melanin, Mel + peptide 18 hours at pH 8.5: filtered preformed melanin; for Binding of peptides on synthetic melanin, Peptide-Mel: peptide/L-Dopa 1/4 mixed, then 2 hours at pH 8.5 and 60° C.; for peptide binding to melanin: binding-promoting amino-acid at NH2-terminal vs COOH terminal end; for Binding of peptides on synthetic melanin, Mel + peptide 10 minutes / Binding of peptides on synthetic melanin, Mel + peptide 2 hours / Binding of peptides on synthetic melanin, Mel + peptide 18 hours: filtered preformed melanin at pH 7.5
Text: The binding of the peptide to the melanin can be verified by Tricine-SDS-PAGE analysis as described in Carpentier; 2017 (op. cit.). Briefly, samples (peptide-Mel or peptide alone) are loaded on acrylamide gels. Following electrophoresis, the gels are stained with Coomassie Brilliant Blue R-250, allowing the quantification of the free peptide in the gel. The binding of peptides to melanin can be expressed as the ratio: [amount of unbound peptide in samples Peptide-Mel/amount of peptides in control samples containing peptides alone.
Peptides were mixed with L-Dopa (weight ratio peptide/L-Dopa=1/4 and 1/6 for gp100 and EphA2, respectively) then incubated for 2 hours at pH 8.5 and 60° C. under agitation to ensure oxygenation of the solution to generate nanoparticles of melanin-bound peptides (Peptide-Mel). Alternatively, L-Dopa alone (0.8 mg/ml) was polymerized into melanin for 2 h at pH 8.5 and 60° C. under agitation, before the peptides (weight ratio peptide/L-Dopa=1/4 and 1/6 for gp100 and EphA2, respectively) were added to the solution (Mel+peptide). Tricine-SDS-PAGE analysis was performed as described in Carpentier; 2017 (op. cit.). Briefly, samples (peptide-Mel or peptide alone) were loaded on acrylamide gels. Following electrophoresis, the gels were stained with Coomassie Brilliant Blue R-250 and imaged with the ChemiDoc XRS+ system (Bio-Rad Laboratory), allowing the quantification of the free peptide in the gel. The binding of peptides to melanin was expressed as the ratio: [amount of unbound peptide in samples Peptide-Mel/amount of peptides in control samples containing peptides alone]
First column (Peptide-Mel): L-Dopa (0.8 mg/ml) was mixed with peptides (weight ratio peptide/L-Dopa=1/4) then incubated for 2 hours at pH 8.5 and 60° C. to generate nanoparticles of melanin-bound peptides. Alternatively (second column; Mel+peptide), L-Dopa alone (0.8 mg/ml) was first polymerized into melanin for 2 h at pH 8.5 and 60° C. under vigorous agitation, before the peptides (weight ratio peptide/L-Dopa=1/4) were added to the solution and incubated for 2 hours at room temperature. In both cases, the percentage of peptides that bound to melanin was then quantified with SPS-page analysis, as described in table 1. (ND=not done)
(§1) L-Dopa (0.8 mg/ml) underwent an oxidative polymerization at pH 8.5 in aerobic conditions for 2 hours at 60° C. The reaction mixture was then filtered on a 10 kDa filter, and the retentate containing the synthetic melanin was resuspended at pH 7.5 in phosphate buffer. Peptides were then added (at the weight ratio peptide/L-Dopa=1/4) and the mixture was incubated for various periods of time and or pH. The percentage of peptides that bound to melanin was then quantified with SPS-page analysis, as described in table 1. (ND=not done).
as §1, with “8.5 and 60° C.” for “8.5 in aerobic conditions”, “2 hours.” for “2 hours at 60° C.”, “of time. Binding” for “of time and or pH. The percentage”, “of the” for “of”, “peptides” for “peptides that bound to melanin”, “(ND=not done)” for “(ND=not done).”

[2] = system: humanized female HLADRB1* 0101/HLA-A*0201 (HHD DR1) mice; assay: CTL response (IFNg-SFCs of re-stimulated splenocytes) after subcutaneous immunization in humanized mice; format: in vivo; conditions: 10 μg/mouse subcutaneous, day 8, more than 10 spots is positive
Method: CTL response was evaluated after subcutaneous immunizations in humanized female HLADRB1* 0101/HLA-A*0201 (HHD DR1) mice.
L-Dopa (0.8 mg/ml) underwent an oxidative polymerization at pH 8.5 in aerobic conditions for 2 hours at 60° C. The reaction mixture was then filtered on a 10 kDa filter, and the retentate containing the synthetic melanin was resuspended at pH 7.5 in phosphate buffer.
Peptides (A10, SEQ ID NO: 29; A8, SEQ ID NO: 34; A30, SEQ ID NO: 31, 10 μg/mouse) were then added (at the weight ratio peptide/L-Dopa=1/4).
Mixtures (either Mel+peptides or Peptides alone) were rapidly (<1 hour) used for subcutaneous immunizations in mice. Phosphorothioate oligonucleotide CpG-28 (5′-[…], SEQ ID NO: 21) was added to vaccine formulations (10 μg/mouse) just before the immunizations. Mice were sacrificed on day 8 and the CTL response was performed as described in Carpentier; 2017. Briefly, splenocytes were re-stimulated in vitro with the corresponding peptide (non-conjugated to melanin) and the numbers of IFNg-SFCs (Spot forming cells) were measured and expressed as Mean+/−S.E.M. (n=4 to 8 mice/group). More than 10 spots is considered as a positive immune response

| Binding of peptides on synthetic melanin, Mel + peptide ([1]; 2 hours at room temperature) [%] | Binding of peptides on synthetic melanin, Mel + peptide 2 hours at pH 7.4 [1] [%] | Binding of peptides on synthetic melanin, Mel + peptide 18 hours at pH 7.4 [1] [%] | Binding of peptides on synthetic melanin, Mel + peptide 18 hours at pH 8.5 [1] [%] | Binding of peptides on synthetic melanin, Peptide-Mel [1] [%] | Substance | other results |
| --- | --- | --- | --- | --- | --- | --- |
| 23 | 23 | 39 | 74 | 95 | HydroxyP SIYRYYGL ([Hyp]SIYRYYGL) [SEQ ID NO: 6] | – |
| 0 | 0 | – | – | 56 | Acetyl-R W SIYRYYGL (Ac-RWSIYRYYGL) [SEQ ID NO: 14] | – |
| – | – | – | – | – | VYDFFVWL-X [SEQ ID NO: 20] | peptide binding to melanin [1]: 55% |
| – | – | – | – | – | X-VYDFFVWL [SEQ ID NO: 19] | peptide binding to melanin [1]: 51% |
| – | – | – | – | – | CKSVWSKLQSIGIRQH (Modified UCP2 Peptide) [A10] | numbers of IFNg-SFCs (Spot forming cells), Mean ([2]; Mel + pept + CpG-28): 150; numbers of IFNg-SFCs (Spot forming cells), Mean ([2]; Pept + CpG-28): 18 |
| – | – | – | – | – | CKVFAGIPTVASDTV (Modified PTPRZ1 Epitope) [A8] | numbers of IFNg-SFCs (Spot forming cells), Mean ([2]; Mel + pept + CpG-28): 29; numbers of IFNg-SFCs (Spot forming cells), Mean ([2]; Pept + CpG-28): 5 |
| 0 | 0 | 28 | 31 | 90 | SIYRYYGL [SEQ ID NO: 3, reference compound] | – |
| – | 0 | 13 | 32 | – | Acetyl-R M SIYRYYGL (Ac-RMSIYRYYGL) [SEQ ID NO: 11] | – |
| – | – | – | – | – | P KVPRNQDWL (PKVPRNQDWL; Modified gp100 peptide) [SEQ ID NO: 15] | Binding of peptides on synthetic melanin, Mel + peptide 10 minutes [1]: 13%; Binding of peptides on synthetic melanin, Mel + peptide 2 hours [1]: 11%; Binding of peptides on synthetic melanin, Mel + peptide 18 hours [1]: 100% |
| 53 | 53 | 46 | 42 | 74 | Acetyl-R C SIYRYYGL (Ac-RCSIYRYYGL) [SEQ ID NO: 8] | – |
| – | 0 | 31 | 62 | – | Acetyl-K SIYRYYGL (Ac-KSIYRYYGL) [SEQ ID NO: 7] | – |
| 0 | 0 | – | – | 10 | Acetyl-R T SIYRYYGL (Ac-RTSIYRYYGL) [SEQ ID NO: 12] | – |
| 17 | 17 | 2 | 0 | 0 | Acetyl-R SIYRYYGL (Ac-RSIYRYYGL) [SEQ ID NO: 4] | melanin binding (in words), Peptide-Mel ([1]; peptide mixed with L-Dopa, 2 hours at pH 8.5): No binding |
| – | 0 | 12 | – | – | Acetyl-R S SIYRYYGL (Ac-RSSIYRYYGL) [SEQ ID NO: 10] | – |
| 0 | 0 | – | – | 5 | Acetyl-R F SIYRYYGL (Ac-RFSIYRYYGL) [SEQ ID NO: 13] | – |
| – | – | – | – | – | C KVPRNQDWL (CKVPRNQDWL; Modified gp100 peptide) [SEQ ID NO: 17] | Binding of peptides on synthetic melanin, Mel + peptide 10 minutes [1]: 9%; Binding of peptides on synthetic melanin, Mel + peptide 2 hours [1]: 54%; Binding of peptides on synthetic melanin, Mel + peptide 18 hours [1]: 99%; binding to melanin (in words), cysteine in oxidized or reduced state ([1]; preformed filtered melanin, 2 hours at room temperature): Binding was observed in both cases |
| 7 | 7 | 22 | 41 | 87 | P SIYRYYGL (PSIYRYYGL; Modified test peptide) [SEQ ID NO: 5] | – |
| – | – | – | – | – | M KVPRNQDWL (MKVPRNQDWL; Modified gp100 peptide) [SEQ ID NO: 18] | Binding of peptides on synthetic melanin, Mel + peptide 10 minutes [1]: 7%; Binding of peptides on synthetic melanin, Mel + peptide 2 hours [1]: 43%; Binding of peptides on synthetic melanin, Mel + peptide 18 hours [1]: 100% |
| – | – | – | – | – | CKVFAGIPTV (Modified PTPRZ1 Epitope) [A30] | numbers of IFNg-SFCs (Spot forming cells), Mean ([2]; Mel + pept + CpG-28): 182 |
| – | – | – | – | – | HydroxP KVPRNQDWL ([Hyp]KVPRNQDWL) [SEQ ID NO: 16] | Binding of peptides on synthetic melanin, Mel + peptide 10 minutes [1]: 12%; Binding of peptides on synthetic melanin, Mel + peptide 2 hours [1]: 35%; Binding of peptides on synthetic melanin, Mel + peptide 18 hours [1]: 100% |
| – | – | – | – | 60 | Acetyl-R H SIYRYYGL (Ac-RHSIYRYYGL) [SEQ ID NO: 9] | – |

Reference: patent US20230084978A1, “OPTIMIZATION OF PEPTIDE-MELANIN BINDING” (ASSITANCE PUBLIQUE - HÔPITAUX DE PARIS, priority 2020, published 2023)
